# Measured values from US6528049B2, “Bisexual attractants, aggregants and arrestants for adults and larvae of codling moth and other species of lepidoptera” (Trece, Inc., priority 1999, dated 2003).
# “And” between values parts separate entries of the source, which are not always exact repeats. Equal values may be shown once.
# Legend:
# Assay type in all cases: in vivo, Cydia pomonella
# [1] = test system: codling moth; experiment: Ester blend #10-baited vs pheromone-baited sticky traps; conditions: Table 13; baited sticky trap
# Text: Attraction of female and male codling moths to ester blend #10 in baited sticky trap is seen in FIG. 1. […] Results are numerically expressed in Table 13.
# Table 13 compares two orchard treatments with ester blend #10 and pheromone-only baited sticky traps. […] In the pheromone baited traps, only male insects were captured.
# The female flight pattern depicted by capture in ester blend #10-baited sticky traps was related to the male flight pattern to pheromone-baited traps over the 3 month test period. Results are seen in FIG. 2, which is a comparative graph of codling moth flight patterns delineated by males captured in pheromone traps versus both sexes captured in ester blend #10 traps. […] The male pheromone curve rises sooner and lasts longer per flight, while the female ester blend #10 curve drops off sooner. These temporal-phase shifts of the flight curves represent the earlier and longer emergence of male codling moth for each flight period.
# (§1) Sticky traps (ICP and IIB traps, Trécé, Inc. Salinas, Calif.) were baited with either extracts, blends of HPVs, or individual HPVs (>95% purity) that evaporated from impregnated rubber septa. HPV blends, or individual HPV compounds, were diluted in hexane and pipetted onto rubber septa at approximate doses of 10 mg/septum. A single treatment septum was placed in each sticky wing-trap, and hung approximately six meters high in the outer walnut canopy. Trap liners and treatment HPV septa were replaced every 10-14 days and pheromone septa every month and tests were conducted throughout two summers.
# (§2) A replicated series of different HPV treatment traps, control “blank” (unbaited) trap, and a commercial pheromone-baited trap (Trécé, Inc.) were distributed 5 trees apart throughout two distant Hartley walnut orchards and validated in 12 walnut orchards. The orchards were distinct, with one using three summer insecticide sprays and the other had no spraying. Thus, these test orchards had low vs. moderate relative populations of codling moths. Significant effects on the gender of codling moths captured were judged by paired tests, either T-test or a nonparametric test.
# [2] = test system: codling moth; experiment: Rapid-kill liquid traps baited with ester blend #10 or pheromone
# Description: Experimental challenge to this question was to use a novel, funnel-liquid-jar-trap (“rapid-kill liquid traps”) to rapidly kill (drown) attracted moths. […] Again, it was the females who were predominantly captured (sex ratio: 1♂:3.0♀♀ insect attracted).
# Again, females were preferentially attracted (3:1 ratio) to ester blend #10 rapid kill liquid traps, while only males were seen to be attracted to the pheromone traps.
# A second series of inherent attractancy tests were conducted on the most-active HPV blend (ester blend #10) using a novel, funnel-liquid (50:50 water and antifreeze) jar-trap adapted from a prototype of Trece, Inc., to rapidly kill (drown) attracted moths (“rapid-kill liquid traps”). This study comprised of a pheromone standard trap, a control blank trap and seven replicated HPV ester blend #10-baited traps. The rapid-kill traps were hung six meters high on trees distributed five rows apart in a Hartley walnut orchard with a moderate codling moth population. HPV ester blend #10 was loaded on a rubber septa at approximate doses of 10 mg/septum and were replaced every 10 days, while the commercial pheromone septum was replaced monthly.
# [3] = test system: male codling moth; experiment: Pheromone preference paired-trap test: pheromone alone vs pheromone + HPV; conditions: Table 8, trap paired with the HPV of the same table line
# Text: Interaction of synthetic apple and pear odor blends, described above in Table 2, and their effect on the attractancy of synthetic pheromone to codling moth was also studied. For that purpose, series of paired-traps containing pheromone alone or pheromone in combination with synthetic host plant volatile blends were placed in walnut orchards.
# Interaction of individual synthetic host plant volatiles or blends on the attractiveness of synthetic male pheromone to male codling moth administered in paired traps with pheromone alone or with pheromone and attractant 10 mg/red septum was also studied.
# (§3) Pheromone traps (sticky wing traps, Trécé, Inc.,) were hung as pairs: a pheromone only baited-trap vs. a pheromone+HPV blend-baited trap. The two traps of a test pair were attached in close competitive proximity (120 cm apart) on a common hanger bar (PVC pipe). The paired-trap bars were hung 5-6 meters high on the outer canopies of trees. A single pair-trap was hung per tree and different replicate test trees were separated by five rows in a matrix through the orchard. Each pheromone trap was baited with ½ of a commercial pheromone-impregnated rubber septum (Trécé, Inc.). Septa were sectioned by a razor blade. The HPV blends evaporated from their own separate impregnated rubber septa containing 10 mg diluted in hexane/septum).
# (§4) Tests were conducted in a Harley English walnut orchard. Tests spanned the entire two year seasons April-October with traps checked, males sexed, counted and removed every 2-7 days. Significant effect on pheromone trap capture were judged by paired tests either T-test or a nonparametric test.
# [4] = test system: codling moth; experiment: Sticky traps baited with the single compound or pheromone; conditions: Table 15, sticky trap
# Text: FIG. 5 illustrates mean attraction of female and male codling moths to sticky traps baited with a single host plant volatile, ethyl (2E,4Z)-2,4-decadienoate. The attraction was followed over a two month period.
# [5] = test system: codling moth; experiment: Septa colour and loading dose trap study; conditions: Ph-L2 pheromone
# Description: Since there have been differences observed between traps containing gray, white or red septa, a study was performed to determine the significance of the specific septa and their effect on the increase or decrease of attractancy. […]
# [6] = test system: codling moth; experiment: Paired-trap test of pheromone alone vs pheromone + ester blend #10; conditions: for Total Moths Caught: / Mean ± SEM capture of codling moths: Table 11; for Mean ± SEM capture of codling moths: paired traps, Hartley walnut orchard
# Text: The ability of the HPV ester blend #10 to influence the pheromone attractancy/preference of codling moth was resolved using paired-traps, one trap with a pheromone septum alone and the other trap with a pheromone septum and an ester blend #10 septum. […] Results are seen in Tables 10 and 11, and FIG. 3.
# Table 10 illustrates interaction of pheromone with HPV ester blend #10 on codling moth attraction, when tested in a conventional low-population Hartley walnut orchard. There were 13 traps and 18 trap check dates.
# as §3, §4
# [7] = test system: codling moth; experiment: Trap capture with purified (2E,4E) and (2E,4Z) 2,4-decadienoic acid esters; conditions: 1 mg dose/gray septum; four orchards; means of 21 trap checks
# Description: In this study, test compounds were highly purified synthetic samples. The purities of the compounds are expressed as percentages. Individual traps were baited with 1 mg dose/gray septum; five replicate blocks in four orchards; means of 21 total trap checks.
# [8] = test system: codling moth; experiment: Inherent attractancy field test of HPV blends in baited sticky traps in walnut orchard; conditions: walnut orchard; blends 10 mg/white septa; ethyl (2E,4Z)-2,4-decadienoate 5 mg
# Description: The blends listed in Table 2 were then field tested in walnut orchards for their attractancy to male and female codling moths, and also for enhancement with synthetic codling moth pheromone and other additives identified above. Their total capture (both males and females), and their individual male and female capture were determined and results obtained, were compared to insect capture obtained with purified individual ester, compound #25 namely ethyl (2E,4Z)-2,4-decadienoate, and to the codling moth male sex pheromone compound #26 in Table 3.
# Individual blends containing representative aldehyde, alcohol, ester, monoterpene or sesquiterpene blends were provided in the traps in 10 mg/white septa.
# Individual host-plant volatile (HPV) blends identified by the #1-23 in Table 3 were tested for codling moth attractancy in a walnut orchard, and the results were compared to the isolated purified ethyl (2E,4Z)-2,4-decadienoate (#25), to pheromone (#26) and to solvent controls (#24).
# Twenty-five HPV blends and eight individual compounds were field tested. One synthetic blend, “ester blend #10,” elicited excellent codling moth attraction. In field tests, the other tested blends (see Table 3) and compounds captured no moths over a three month period, except for an “apple-skin surface extract” (Golden Delicious, ether solvent) (Σ=3 codling moth captured, 1♂: 2♀♀) and the individual compound, (E,E)-α-farnesene (Σ=1♂ codling moth captured). The field tests are presented in Table 3 and show attraction specificity for HPV ester blend #10.
# as §1, §2
# [9] = 3 traps, 43 trap checks (pheromone: 1 trap, 19 trap checks)
# [10] = Gray Septa, High (high population conventional orchard)
# [11] = Gray Septa, Low (low population organic orchard)
# [12] = Red Septa, High (high population conventional orchard)
# [13] = Red Septa, Low (low population organic orchard)
smiles,measurement,setting,value
"C/C=C/C=C/CCCCCCCO [Pheromone, (E,E)-8,10-dodecadienol, reference compound]",Female Capture: Mean ± SEM,[1],0 Moths/Trap/Night
same,Female Capture: Sum:,[1],0 Moths/Trap/Night
same,Male Capture: Mean ± SEM,[1],4.96 ± 1.04 Moths/Trap/Night
same,Male Capture: Sum:,[1],94.3 Moths/Trap/Night
same,Female Capture: Sum:,[2]; Table 14,0 Moths/Trap/Night
same,Male Capture: Sum:,[2]; Table 14,18.3 Moths/Trap/Night
same,Female Capture: Mean ± SEM,"[2]; Table 14, one month",0 Moths/Trap/Night
same,Male Capture: Mean ± SEM,"[2]; Table 14, one month",3.04 ± 0.08 Moths/Trap/Night
same,"Male CM Captured, Pheromone Alone Trap: ± SEM",[3]; Orchard #1,0.73 ± 0.15 ♂♂/trap/night and 1.09 ± 0.27 ♂♂/trap/night and 1.04 ± 0.21 ♂♂/trap/night and 0.79 ± 0.15 ♂♂/trap/night and 1.24 ± 0.52 ♂♂/trap/night and 0.72 ± 0.13 ♂♂/trap/night
same,"Male CM Captured, Pheromone Alone Trap: ± SEM",[3]; Orchard #3,2.41 ± 0.42 ♂♂/trap/night and 2.98 ± 0.49 ♂♂/trap/night and 2.33 ± 0.41 ♂♂/trap/night and 4.40 ± 0.87 ♂♂/trap/night and 2.60 ± 0.38 ♂♂/trap/night and 3.82 ± 0.42 ♂♂/trap/night
same,Female Capture: Sum:,[4],0 Moths/Trap/Night
same,Male Capture: Sum:,[4],94.3 Moths/Trap/Night
same,Female Capture: Mean ± SEM,[4]; [9],0 Moths/Trap/Night
same,Male Capture: Mean ± SEM,[4]; [9],4.96 ± 1.04 Moths/Trap/Night
same,♂♂ ± SEM (Ph-L2 pheromone),[5]; [10],0.08 ± 0.05
same,♂♂ ± SEM (under Ph-L2 pheromone),[5]; [10],0.05 ± 0.05
same,♂♂ ± SEM (Ph-L2 pheromone),[5]; [11],0
same,♂♂ ± SEM (under Ph-L2 pheromone),[5]; [11],1.28 ± 0.61
same,♂♂ ± SEM (Ph-L2 pheromone),[5]; [12],0.06 ± 0.06
same,♂♂ ± SEM (under Ph-L2 pheromone),[5]; [12],9.98 ± 2.94
same,♂♂ ± SEM (Ph-L2 pheromone),[5]; [13],0
same,♂♂ ± SEM (under Ph-L2 pheromone),[5]; [13],0.80 ± 0.31
same,Total Moths Caught: Male,"[6]; Table 10, conventional low-population Hartley walnut orchard",46
same,"Male capture, Mean ± SEM","[6]; Table 10, conventional low-population Hartley walnut orchard, 13 traps, 18 trap check dates",0.55 Moths/Night
same,Total Moths Caught:,[6]; Test 1,212
same,Mean ± SEM capture of codling moths,[6]; Test 1 (2 Reps),0.74 ± 0.13 Moths/Trap/Night
same,Total Moths Caught:,[6]; Test 2,745
same,Mean ± SEM capture of codling moths,"[6]; Test 2 (2 Reps, 50 trap checks)",2.54 ± 0.43 Moths/Trap/Night
same,MALE CM Captured: ♂♂/trap/night ± SEM,[7],7.13 ± 1.94 ♂♂/trap/night
same,Total CM Captured: CM/trap/night ± SEM,[7],7.13 ± 1.94 CM/trap/night
same,FEMALE CM Captured with HPV; ♀♀/trap night ± SEM,[8],0.0 ♀♀/trap night
same,MALE CM Captured with HPV; ♂♂/trap/night ± SEM,[8],3.15 ± 0.98 ♂♂/trap/night
same,Total CM Captured with HPV: (CM/trap/night ± SEM),[8],3.15 ± 0.98 CM/trap/night
